Source: patent publication US12624127B2, “Chitosan derivatives as antimicrobials and synergistic combinations thereof” (priority 2022, dated 2026)

Columns and labels:
A. baumannii = assay: MIC determination, broth micro dilution; assay type: cell-based, Acinetobacter baumannii; conditions: A. baumannii AB-1, antibiotic alone; for MIC: Acinetobacter baumannii, read-out: MIC of antibiotic without 2,6-DAC
Procedure: (§1) MIC values were determined using a broth micro dilution method. Bacteria cells were grown overnight at 37° C. in MHB to a mid-log phase (OD600 between 0.4-0.5 for each organism) and diluted in MHB to 10^5 CFU/mL. […] 50 μL of the 1-5×10^5 CFU/mL bacterial cultures (final concentration) was aliquoted into 96-well microtiter plates and mixed with 50 μL of two-fold dilutions of the polymer or antibiotics and incubated for 16-18 h at 37° C. with shaking at 200 rpm.
(§2) 2,6-DAC was screened as a potentiating agent for synergistic combinations with antibiotics against both A. baumannii AB-1 and MRSA USA300. Before the synergy tests, the MIC values of antibiotics were tested against MDR A. baumannii AB-1 and MRSA USA300 by following the MIC determination protocol in Example 4. Then, the synergy of 2,6-DAC with antibiotics was determined.

A. baumannii AB-1 [1] = assay: Checkerboard synergy assay of 2,6-DAC with antibiotics; assay type: cell-based, Acinetobacter baumannii; conditions: for MIC of antibiotic +16 μg/mL 2,6-DAC / MIC of antibiotic +32 μg/mL 2,6-DAC: A. baumannii AB-1 (MDR); for Synergy with 2,6-DAC (in words) / MIC, antibiotic in combination: A. baumannii AB-1; for MIC, antibiotic in combination: antibiotic concentration in combination with 2,6-DAC (8 μg/mL)
Procedure: as §2
(§3) Synergy was measured by time killing assay and checkerboard assay. Time killing assay was performed by following the protocol in Example 4. Checkerboard susceptibility assays to measure combinations of antimicrobials were performed in MHB at 37° C. as previously described (K. R. V. Thappeta et al., ACS Infect. Dis. 2020, 6, 1228-1237; and Z. Si et al., Angew. Chem. Int. Ed. 2020, 59, 6819-6826). The fractional inhibitory concentration (FIC) indices were calculated according to the following formula: […]

MRSA = assay: MIC determination, broth micro dilution; assay type: cell-based; conditions: MRSA USA300; for MIC: Staphylococcus aureus, read-out: MIC of antibiotic alone / without 2,6-DAC
Procedure: as §1, §2

MRSA USA300 = assay: Checkerboard synergy assay of 2,6-DAC with antibiotics; assay type: cell-based; conditions: for MIC, antibiotic in combination: antibiotic concentration in combination with 2,6-DAC
Procedure: as §2, §3

A. baumannii AB-1 [2] = assay: Time killing assay; assay type: cell-based, Acinetobacter baumannii; conditions: for Killing of bacteria by single agent (in words): sub-inhibitory concentration, alone, 24 h
Procedure: The plates were sealed and incubated at 37° C. with shaking at 200 rpm.
At 0, 0.5, 1, 2, 3, 5, and 24 h post-inoculation, each well was thoroughly mixed with a multi-channel pipette and 20 μL of sample was removed, serially diluted in sterile PBS, plated on LB agar plates, and incubated at 37° C. for 12 h. Colonies were counted to determine the CFU/mL at each time point.
as §3

MDR A. baumannii (AB-1) = assay: Intraperitoneal infection model in BALB/c mice; assay type: in vivo, Acinetobacter baumannii
Procedure: Bacterial cultures of MDR A. baumannii (AB-1) were prepared and used to infect 8-week-old female BALB/c mice. 10^6 CFU/mL of AB-1 (300 μL) was injected into the intraperitoneal cavity to introduce the infection. After 2 h of infection, specific dosage of antibiotic (novobiocin or rifampicin, 10 mg/kg), 2,6-DAC (25 mg/kg) or the combination of antibiotic (novobiocin or rifampicin, 10 mg/kg) and 2,6-DAC (25 mg/kg) were injected into the intraperitoneal cavity. PBS was used as a control. Mice euthanasian at the indicated time points (18 h) was achieved by CO2 asphyxiation followed by cervical dislocation. The intraperitoneal fluid, kidney, spleen and liver were recovered, and counted for bacteria concentration. For histopathological analysis, the kidney, spleen and liver were fixed in 10% neutral buffered formalin and embedded in paraffin. The paraffin-embedded sections were stained with H&E. The animal studies were carried out in accordance to protocol (A20029) approved by the NTU Institutional Animal Care and Use Committee (NTU-IACUC).

Row | Compound | MIC (A. baumannii) | MIC of antibiotic +16 μg/mL 2,6-DAC (A. baumannii AB-1 [1]) | MIC of antibiotic +32 μg/mL 2,6-DAC (A. baumannii AB-1 [1]) | MIC (MRSA) | Synergy with 2,6-DAC (in words) (MRSA USA300) | further results
1 | CC[C@H]1OC(=O)[C@H](C)[C@@H](O[C@H]2C[C@@](C)(OC)[C@@H](O)[C@H](C)O2)[C@H](C)[C@@H](O[C@@H]2O[C@H](C)C[C@H](N(C)C)[C@H]2O)[C@](C)(O)C[C@@H](C)CN(C)[C@H](C)[C@@H](O)[C@]1(C)O [Azithromycin] | 128 µg/mL | 64 µg/mL | 1 µg/mL | – | – | –
2 | CCN1CCN(C(=O)N[C@@H](C(=O)N[C@@H]2C(=O)N3[C@@H]2SC(C)(C)[C@@H]3C(=O)O)c2ccccc2)C(=O)C1=O [Piperacillin] | – | – | – | 4 µg/mL | no synergy | –
3 | Ramoplanin | – | 128 µg/mL | 2 µg/mL | – | – | MIC of antibiotic without 2,6-DAC (A. baumannii): >128 µg/mL
4 | C[C@H]1COc2c(N3CCN(C)CC3)c(F)cc3c(=O)c(C(=O)O)cn1c23 [Levofloxacin] | 4 µg/mL | 2 µg/mL | ≤1 µg/mL | – | – | –
5 | NC[C@H]1O[C@H](O[C@H]2[C@H](O)[C@@H](O[C@H]3O[C@H](CO)[C@@H](O)[C@H](N)[C@H]3O)[C@H](N)C[C@@H]2N)[C@H](N)C[C@@H]1O [Tobramycin] | > 128 µg/mL | – | – | 1 µg/mL | – | MIC of antibiotic without 2,6-DAC (A. baumannii): >128 µg/mL; Reduction, combination with 2,6-DAC (A. baumannii AB-1 [2]; 2,6-DAC 0.5×MIC + tobramycin 0.002×MIC): 2 log10; Killing of bacteria by single agent (in words) (A. baumannii AB-1 [2]): no killing of bacteria; Synergy with 2,6-DAC (in words) (A. baumannii AB-1 [1]): synergistic activity; MIC, antibiotic in combination (A. baumannii AB-1 [1]): 2 µg/mL; MIC, antibiotic in combination (MRSA USA300): 0.25 µg/mL
6 | CC1COc2c(N3CCN(C)CC3)c(F)cc3c(=O)c(C(=O)O)cn1c23 (stereo not shown) [Ofloxacin] | 8 µg/mL | 8 µg/mL | 4 µg/mL | – | – | –
7 | C[C@]1(Cn2ccnn2)[C@H](C(=O)O)N2C(=O)C[C@H]2S1(=O)=O [Tazobactam] | 64 µg/mL | – | – | – | – | Bactericidal efficacy, combination with 2,6-DAC (A. baumannii AB-1 [2]; 2,6-DAC 0.5×MIC + tazobactam 0.06×MIC): 4 log10; Killing of bacteria by single agent (in words) (A. baumannii AB-1 [2]): no killing of bacteria; Synergy with 2,6-DAC (in words) (A. baumannii AB-1 [1]): synergistic activity; MIC, antibiotic in combination (A. baumannii AB-1 [1]): 16 µg/mL
8 | O=C(O)c1cn(C2CC2)c2cc(N3CCNCC3)c(F)cc2c1=O [Ciprofloxacin] | – | – | – | 8 µg/mL | no synergy | –
9 | C[C@@H](O)[C@H]1C(=O)N2C(C(=O)O)=C(S[C@@H]3CN[C@H](C(=O)Nc4cccc(C(=O)O)c4)C3)[C@H](C)[C@H]12 [Ertapenem] | > 128 µg/mL | 4 µg/mL | 2 µg/mL | – | – | –
10 | Colistin | – | – | – | – | no synergy | MIC of antibiotic alone / without 2,6-DAC (MRSA): 50 µg/mL
11 | C[C@@H](O)[C@H]1C(=O)N2C(C(=O)O)=C(S[C@@H]3CN[C@H](C(=O)N(C)C)C3)[C@H](C)[C@H]12 [Meropenem] | 64 µg/mL | 4 µg/mL | 1 µg/mL | 1 µg/mL | – | MIC, antibiotic in combination (MRSA USA300): 0.5 µg/mL
12 | CC(=O)OCC1=C(C(=O)O)N2C(=O)[C@@H](NC(=O)Cc3cccs3)[C@H]2SC1 [Cephalothins] | – | 128 µg/mL | 2 µg/mL | – | – | MIC of antibiotic without 2,6-DAC (A. baumannii): >128 µg/mL
13 | C[C@@H](O)[C@H]1C(=O)N2C(C(=O)O)=C(SCCN=CN)C[C@H]12 [Imipenem] | 64 µg/mL | 8 µg/mL | 1 µg/mL | – | – | –
14 | Polymyxin B | – | – | – | – | no synergy | MIC of antibiotic alone / without 2,6-DAC (MRSA): 32 µg/mL
15 | COc1cc(Cc2cnc(N)nc2N)cc(OC)c1OC [Trimethoprim] | – | – | – | – | no synergy | –
16 | CO/N=C(\C(=O)N[C@@H]1C(=O)N2C(C(=O)O)=C(CSc3nc(=O)c(=O)[nH]n3C)CS[C@H]12)c1csc(N)n1 [Ceftriaxone] | > 128 µg/mL | 128 µg/mL | 2 µg/mL | 16 µg/mL | no synergy | –
17 | O=C(N[C@H](CO)[C@H](O)c1ccc([N+](=O)[O-])cc1)C(Cl)Cl [Chloramphenicol] | – | – | – | 4 µg/mL | no synergy | –
18 | CC(C)(O/N=C(\C(=O)N[C@@H]1C(=O)N2C(C(=O)[O-])=C(C[n+]3ccccc3)CS[C@H]12)c1csc(N)n1)C(=O)O [Ceftazidime] | > 128 µg/mL | 128 µg/mL | 2 µg/mL | 16 µg/mL | no synergy | –
19 | CO[C@@]1(NC(=O)Cc2cccs2)C(=O)N2C(C(=O)O)=C(COC(N)=O)CS[C@@H]21 [Cefoxitin] | > 128 µg/mL | 128 µg/mL | 8 µg/mL | – | – | –
20 | NCC[C@H](O)C(=O)N[C@@H]1C[C@H](N)[C@@H](O[C@H]2O[C@H](CN)[C@@H](O)[C@H](O)[C@H]2O)[C@H](O)[C@H]1O[C@H]1O[C@H](CO)[C@@H](O)[C@H](N)[C@H]1O [Amikacin] | > 128 µg/mL | – | – | 1.56 µg/mL | no synergy | MIC of antibiotic without 2,6-DAC (A. baumannii): >128 µg/mL; Bactericidal efficacy, combination with 2,6-DAC (A. baumannii AB-1 [2]; 2,6-DAC 0.5×MIC + amikacin 0.002×MIC): 4 log10; Killing of bacteria by single agent (in words) (A. baumannii AB-1 [2]): no killing of bacteria; Synergy with 2,6-DAC (in words) (A. baumannii AB-1 [1]): synergistic activity; MIC, antibiotic in combination (A. baumannii AB-1 [1]): 2 µg/mL
21 | CC[C@H]1OC(=O)[C@H](C)[C@@H](O[C@H]2C[C@@](C)(OC)[C@@H](O)[C@H](C)O2)[C@H](C)[C@@H](O[C@@H]2O[C@H](C)C[C@H](N(C)C)[C@H]2O)[C@](C)(O)C[C@@H](C)C(=O)[C@H](C)[C@@H](O)[C@]1(C)O [Erythromycin] | > 128 µg/mL | 64 µg/mL | 4 µg/mL | – | – | –
22 | CO[C@@H]1[C@@H](OC(N)=O)[C@@H](O)[C@H](Oc2ccc3c(O)c(NC(=O)c4ccc(O)c(CC=C(C)C)c4)c(=O)oc3c2C)OC1(C)C [Novobiocin] | 8 µg/mL | – | – | 0.125 µg/mL | – | Bacteria killing, combination with 2,6-DAC (A. baumannii AB-1 [2]; 2,6-DAC 0.25×MIC + novobiocin 0.125 to 0.25×MIC): 4 log10; Killing of bacteria by single agent (in words) (A. baumannii AB-1 [2]): no killing of bacteria; Synergy with 2,6-DAC (in words) (A. baumannii AB-1 [1]): synergistic activity; MIC, antibiotic in combination (A. baumannii AB-1 [1]): 0.5 µg/mL; MIC, antibiotic in combination (MRSA USA300): 0.03125 µg/mL; Histology of liver, spleen and kidney, combination treatment (in words) (MDR A. baumannii (AB-1); 2,6-DAC + novobiocin, H&E): significantly alleviated these tissue abnormalities; Histology of liver, spleen and kidney, individual treatment (in words) (MDR A. baumannii (AB-1); alone, H&E, vs infection control): did not improve the tissue appearance; Efficacy of single agent in intraperitoneal fluid and distal organs (in words) (MDR A. baumannii (AB-1); alone: 2,6-DAC 25 mg/kg or novobiocin 10 mg/kg, i.p., 18 h): ineffective
23 | CC1(C)S[C@@H]2[C@H](NC(=O)[C@H](N)c3ccccc3)C(=O)N2[C@H]1C(=O)O [Ampicillin] | – | – | – | 4 µg/mL | – | MIC, antibiotic in combination (MRSA USA300): 2 µg/mL
24 | C[C@@H](O)[C@H]1C(=O)N2C(C(=O)O)=C(S[C@@H]3CN[C@H](CNS(N)(=O)=O)C3)[C@H](C)[C@H]12 [Doripenem] | 32 µg/mL | 4 µg/mL | ≤2 µg/mL | – | – | –
25 | CC1(C)S[C@@H]2[C@H](NC(=O)C(C(=O)O)c3ccccc3)C(=O)N2[C@H]1C(=O)O (stereo partly shown) [Carbenicillin] | – | – | – | 8 µg/mL | – | MIC, antibiotic in combination (MRSA USA300): 2 µg/mL
26 | CC1(C)S[C@@H]2[C@H](NC(=O)[C@H](N)c3ccc(O)cc3)C(=O)N2[C@H]1C(=O)O [Amoxicillin] | > 128 µg/mL | 128 µg/mL | 16 µg/mL | – | – | –
